Key:
Assay type in all cases: in vivo
[1] = system: giant foxtail (Setaria faberii); assay: Test A pre-/postemergence plant response
How it was run: (§1)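 Visually rated 0–100 injury (100 = complete control) versus untreated plants, ~10 days in greenhouse. Application pre- (soil spray, loam/sand) and postemergence (2–10 cm, 1–2 leaf stage), same timepoint.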

[2] = system: corn (Zea mays); assay: Test A pre-/postemergence plant response
How it was run: as §1

[3] = system: wheat (Triticum aestivum); assay: Test A pre-/postemergence plant response
How it was run: as §1

[4] = system: barnyardgrass (Echinochloa crus-galli); assay: Test A pre-/postemergence plant response
How it was run: as §1

[5] = system: morningglory (Ipomoea spp.); assay: Test A pre-/postemergence plant response
How it was run: as §1

[6] = system: pigweed (Amaranthus retroflexus); assay: Test A pre-/postemergence plant response
How it was run: as §1

[7] = system: large crabgrass (Digitaria sanguinalis); assay: Test A pre-/postemergence plant response
How it was run: as §1

[8] = system: velvetleaf (Abutilon theophrasti); assay: Test A pre-/postemergence plant response
How it was run: as §1

[9] = system: bermudagrass (Cynodon dactylon); assay: Test B pre-/postemergence plant response; conditions: for Bermudagrass plant response rating (0 to 100 scale): 0 is no effect
Description: (§2) Seeds of plant species selected from blackgrass (Alopecurus myosuroides), downy bromegrass (Bromus tectorum), green foxtail (Setaria viridis), Italian ryegrass (Lolium multiflorum), wheat (Triticum aestivum), wild oat (Avena fatua), deadnettle (henbit deadnettle, Lamium amplexicaule), galium (catchweed bedstraw, Galium aparine), bermudagrass (Cynodon dactylon), Surinam grass (Brachiaria decumbens), cocklebur (Xanthium strumarium), corn (Zea mays), large crabgrass (Digitaria sanguinalis), woolly cupgrass (Eriochloa villosa), giant foxtail (Setaria faberii), goosegrass (Eleusine indica), johnsongrass (Sorghum halepense), kochia (Kochia scoparia), lambsquarters (Chenopodium album), morningglory (Ipomoea coccinea), nightshade (eastern black nightshade, Solanum ptycanthum), yellow nutsedge (Cyperus esculentus), pigweed (Amaranthus retroflexus), ragweed (common ragweed, Ambrosia elatior), Russian thistle (Salsola kali), soybean (Glycine max), sunflower (common oilseed sunflower, Helianthus annuus) and velvetleaf (Abutilon theophrasti) were planted into a blend of loam soil and sand and treated preemergence with test compounds formulated in a non-phytotoxic solvent mixture which included a surfactant.
(§3) At the same time, plants selected from these crop and weed species and also winter barley (Hordeum vulgare), canarygrass (Phalaris minor), chickweed (Stellaria media) and windgrass (Apera spica-venti) were planted in pots containing Redi-Earth® planting medium (Scotts Company, 14111 Scottslawn Road, Marysville, Ohio 43041) comprising spaghnum peat moss, vermiculite, wetting agent and starter nutrients and treated with postemergence applications of some of the test chemicals formulated in the same manner. Plants ranged in height from 2 to 18 cm (1- to 4-leaf stage) for postemergence treatments.
(§4) Treated plants and controls were maintained in a greenhouse for 13 to 15 days, after which time all treated plants were visually evaluated and compared to controls. Plant response ratings, summarized in Table B, are based on a scale of 0 to 100 where 0 is no effect and 100 is complete control. A dash (-) response means no test result.

[10] = system: wheat (Triticum aestivum); assay: Test B pre-/postemergence plant response; conditions: for Wheat plant response rating (0 to 100 scale): 0 is no effect
Description: as §2, §3, §4

[11] = system: cocklebur (Xanthium strumarium); assay: Test B pre-/postemergence plant response; conditions: for Cocklebur plant response rating (0 to 100 scale): 0 is no effect
Description: as §2, §3, §4

[12] = Postemergence, 125 g ai/ha, visual injury, 0 to 100 scale (0 no effect, 100 complete control), approx. ten days
[13] = Postemergence, 500 g ai/ha, 0 to 100 scale, 0 = no effect, 100 = complete control, approx. ten days
[14] = Preemergence, 125 g ai/ha, 0 to 100 scale, 0 = no effect, 100 = complete control
[15] = Preemergence, 500 g ai/ha, visual injury, 0 to 100 scale (0 no effect, 100 complete control), approx. ten days
[16] = 31 g ai/ha, postemergence, scale 0 to 100, 0 is no effect, 100 is complete control
[17] = 62 g ai/ha, postemergence, 100 is complete control, 13 to 15 days
[18] = Postemergence, 125 g ai/ha, visual rating after 13 to 15 days, scale 0 (no effect) to 100 (complete control)
[19] = Postemergence, 250 g ai/ha, scale 0 to 100 (0 no effect, 100 complete control)
[20] = Postemergence, 125 g ai/ha, 0 to 100 scale where 0 is no effect and 100 is complete control
[21] = Postemergence, 31 g ai/ha, 0 to 100 scale (0 no effect, 100 complete control)
[22] = Postemergence, 125 g ai/ha, scale 0 to 100 (0 no effect, 100 complete control)
[23] = Postemergence, 250 g ai/ha, scale 0 to 100 (0 no effect, 100 complete control), 13 to 15 days
[24] = 16 g ai/ha, Postemergence, 0 to 100 scale
[25] = Preemergence, 16 g ai/ha, scale 0 to 100, 0 no effect, 100 complete control
[26] = Preemergence, 31 g ai/ha, scale 0 to 100 (0 no effect, 100 complete control)
[27] = Preemergence, 62 g ai/ha, scale 0 to 100, 0 no effect, 100 complete control
[28] = Preemergence, 125 g ai/ha, scale 0 to 100, 0 no effect, 100 complete control

SMILES: O=C1CCCC(O)=C1C(=O)c1cnc(-c2ccc(Br)cc2)n(-c2ccccc2)c1=O [Compound 70]
- Foxtail, Giant plant response rating [1, 12]: 50
- Plant response rating, Foxtail, Giant [1, 13]: 90
- Plant response rating, Foxtail, Giant [1, 14]: 30
- Plant response rating, Foxtail, Giant [1, 15]: 60
- Corn plant response rating [2, 12]: 0
- Plant response rating, Corn [2, 13]: 20
- Plant response rating, Corn [2, 14]: 0
- Plant response rating, Corn [2, 15]: 0
- Wheat plant response rating [3, 12]: 0
- Plant response rating, Wheat [3, 13]: 0
- Plant response rating, Wheat [3, 14]: 0
- Plant response rating, Wheat [3, 15]: 0
- Barnyardgrass plant response rating [4, 12]: 50
- Plant response rating, Barnyardgrass [4, 13]: 80
- Plant response rating, Barnyardgrass [4, 14]: 0
- Plant response rating, Barnyardgrass [4, 15]: 10
- Morningglory plant response rating [5, 12]: 100
- Plant response rating, Morningglory [5, 13]: 100
- Plant response rating, Morningglory [5, 14]: 0
- Plant response rating, Morningglory [5, 15]: 10
- Pigweed plant response rating [6, 12]: 100
- Plant response rating, Pigweed [6, 13]: 100
- Plant response rating, Pigweed [6, 14]: 60
- Plant response rating, Pigweed [6, 15]: 100
- Crabgrass, Large plant response rating [7, 12]: 50
- Plant response rating, Crabgrass, Large [7, 13]: 90
- Plant response rating, Crabgrass, Large [7, 14]: 40
- Plant response rating, Crabgrass, Large [7, 15]: 90
- Velvetleaf plant response rating [8, 12]: 100
- Plant response rating, Velvetleaf [8, 13]: 100
- Plant response rating, Velvetleaf [8, 14]: 70
- Plant response rating, Velvetleaf [8, 15]: 80
- Plant response rating, Bermudagrass [9, 16]: 75
- Bermudagrass plant response rating (0 to 100 scale) [9, 17]: 85
- Plant response rating, Bermudagrass [9, 18]: 95
- Plant response rating, Bermudagrass [9, 19]: 98
- Plant response rating, Wheat [10, 16]: 5
- Wheat plant response rating (0 to 100 scale) [10, 17]: 20
- Plant response rating, Wheat [10, 18]: 35
- Plant response rating, Wheat [10, 19]: 35
- Plant response rating, Cocklebur [11, 16]: 0
- Cocklebur plant response rating (0 to 100 scale) [11, 17]: 0
- Plant response rating, Cocklebur [11, 18]: 40
- Plant response rating, Cocklebur [11, 19]: 40

SMILES: O=C1CCCC(O)=C1C(=O)c1cnc(-c2ccccc2)n(C2CCOCC2)c1=O [Compound 129]
- Plant response rating, Foxtail, Giant [1, 20]: 90
- Plant response rating, Foxtail, Giant [1, 13]: 90
- Plant response rating, Foxtail, Giant [1, 14]: 40
- Plant response rating, Foxtail, Giant [1, 15]: 80
- Plant response rating, Corn [2, 20]: 20
- Plant response rating, Corn [2, 13]: 50
- Plant response rating, Corn [2, 14]: 0
- Plant response rating, Corn [2, 15]: 0
- Plant response rating, Wheat [3, 20]: 0
- Plant response rating, Wheat [3, 13]: 20
- Plant response rating, Wheat [3, 14]: 0
- Plant response rating, Wheat [3, 15]: 0
- Plant response rating, Barnyardgrass [4, 20]: 90
- Plant response rating, Barnyardgrass [4, 13]: 100
- Plant response rating, Barnyardgrass [4, 14]: 30
- Plant response rating, Barnyardgrass [4, 15]: 100
- Plant response rating, Morningglory [5, 20]: 100
- Plant response rating, Morningglory [5, 13]: 100
- Plant response rating, Morningglory [5, 15]: 90
- Plant response rating, Pigweed [6, 20]: 100
- Plant response rating, Pigweed [6, 13]: 100
- Plant response rating, Pigweed [6, 14]: 100
- Plant response rating, Pigweed [6, 15]: 100
- Plant response rating, Crabgrass, Large [7, 20]: 90
- Plant response rating, Crabgrass, Large [7, 13]: 90
- Plant response rating, Crabgrass, Large [7, 14]: 70
- Plant response rating, Crabgrass, Large [7, 15]: 90
- Plant response rating, Velvetleaf [8, 20]: 100
- Plant response rating, Velvetleaf [8, 13]: 100
- Plant response rating, Velvetleaf [8, 14]: 80
- Plant response rating, Velvetleaf [8, 15]: 90
- Bermudagrass plant response rating (0 to 100 scale) [9, 17]: 80
- Plant response rating, Bermudagrass [9, 21]: 80
- Plant response rating, Bermudagrass [9, 22]: 95
- Plant response rating, Bermudagrass [9, 23]: 98
- Wheat plant response rating (0 to 100 scale) [10, 17]: 0
- Plant response rating, Wheat [10, 21]: 0
- Plant response rating, Wheat [10, 22]: 0
- Plant response rating, Wheat [10, 23]: 0
- Cocklebur plant response rating (0 to 100 scale) [11, 17]: 98
- Plant response rating, Cocklebur [11, 21]: 95
- Plant response rating, Cocklebur [11, 22]: 98
- Plant response rating, Cocklebur [11, 23]: 100

SMILES: O=C1CCCC(O)=C1C(=O)c1cnc(-c2cccc(Br)c2)n(-c2ccccc2)c1=O [Compound 69]
- Foxtail, Giant plant response rating [1, 12]: 80
- Plant response rating, Foxtail, Giant [1, 13]: 90
- Plant response rating, Foxtail, Giant [1, 14]: 40
- Plant response rating, Foxtail, Giant [1, 15]: 70
- Corn plant response rating [2, 12]: 20
- Plant response rating, Corn [2, 13]: 40
- Plant response rating, Corn [2, 14]: 0
- Plant response rating, Corn [2, 15]: 0
- Wheat plant response rating [3, 12]: 0
- Plant response rating, Wheat [3, 13]: 10
- Plant response rating, Wheat [3, 14]: 0
- Plant response rating, Wheat [3, 15]: 10
- Barnyardgrass plant response rating [4, 12]: 90
- Plant response rating, Barnyardgrass [4, 13]: 100
- Plant response rating, Barnyardgrass [4, 14]: 10
- Plant response rating, Barnyardgrass [4, 15]: 60
- Morningglory plant response rating [5, 12]: 100
- Plant response rating, Morningglory [5, 13]: 100
- Plant response rating, Morningglory [5, 14]: 0
- Plant response rating, Morningglory [5, 15]: 50
- Pigweed plant response rating [6, 12]: 100
- Plant response rating, Pigweed [6, 13]: 100
- Plant response rating, Pigweed [6, 14]: 100
- Plant response rating, Pigweed [6, 15]: 100
- Crabgrass, Large plant response rating [7, 12]: 80
- Plant response rating, Crabgrass, Large [7, 13]: 100
- Plant response rating, Crabgrass, Large [7, 14]: 90
- Plant response rating, Crabgrass, Large [7, 15]: 100
- Velvetleaf plant response rating [8, 12]: 100
- Plant response rating, Velvetleaf [8, 13]: 100
- Plant response rating, Velvetleaf [8, 14]: 70
- Plant response rating, Velvetleaf [8, 15]: 100
- Plant response rating, Bermudagrass [9, 24]: 85
- Plant response rating, Bermudagrass [9, 16]: 98
- Bermudagrass plant response rating (0 to 100 scale) [9, 17]: 98
- Plant response rating, Bermudagrass [9, 18]: 98
- Plant response rating, Bermudagrass [9, 25]: 90
- Plant response rating, Bermudagrass [9, 26]: 98
- Plant response rating, Bermudagrass [9, 27]: 100
- Plant response rating, Bermudagrass [9, 28]: 100
- Plant response rating, Wheat [10, 24]: 0
- Plant response rating, Wheat [10, 16]: 5
- Wheat plant response rating (0 to 100 scale) [10, 17]: 5
- Plant response rating, Wheat [10, 18]: 10
- Plant response rating, Wheat [10, 26]: 0
- Plant response rating, Wheat [10, 27]: 0
- Plant response rating, Wheat [10, 28]: 0
- Plant response rating, Cocklebur [11, 24]: 0
- Plant response rating, Cocklebur [11, 16]: 0
- Cocklebur plant response rating (0 to 100 scale) [11, 17]: 0
- Plant response rating, Cocklebur [11, 18]: 20
- Plant response rating, Cocklebur [11, 25]: 0
- Plant response rating, Cocklebur [11, 26]: 0
- Plant response rating, Cocklebur [11, 27]: 0
- Plant response rating, Cocklebur [11, 28]: 10
